This experiment concerns MV-4-11 cells. Nature of the experiment: Gene expression microarray analysis (Affymetrix PrimeView) and GSEA. The format is cell-based, human. The settings on record: MV-4-11 cells, 48 hours. Also noted: RFU PODN (11730768_x_at) / Fold change /veh PODN (11730768_x_at) / RFU LINC00158 (11744669_a_at) / Fold change /veh LINC00158 (11744669_a_at) / RFU DUSP10 (11751237_a_at) / Fold change /veh DUSP10 (11751237_a_at) / RFU ID3 (11757404_x_at) / Fold change /veh ID3 (11757404_x_at) / RFU PLEKHG5 (11737974_s_at) / Fold change /veh PLEKHG5 (11737974_s_at) / RFU LRRC4B (11730491_at) / Fold change /veh LRRC4B (11730491_at) / RFU GIMAP4 (11747438_a_at) / Fold change /veh GIMAP4 (11747438_a_at) / RFU KRT8 (11758183_x_at) / Fold change /veh KRT8 (11758183_x_at) / RFU CNN1 (11734310_a_at) / Fold change /veh CNN1 (11734310_a_at) / RFU VPS37D (11726825_at) / Fold change /veh VPS37D (11726825_at) / RFU C10orf10 (11716522_x_at) / Fold change /veh C10orf10 (11716522_x_at) / RFU KIR2DL2 /// KIR2DL4 /// KIR2DL5A /// KIR2DL5B /// KIR2DS1 /// KIR2DS2 /// KIR2DS3 /// KIR2DS4 /// KIR3DL3 /// KIR3DL3 /// KIR3DS1 (11738374_at) / Fold change /veh KIR2DL2 /// KIR2DL4 /// KIR2DL5A /// KIR2DL5B /// KIR2DS1 /// KIR2DS2 /// KIR2DS3 /// KIR2DS4 /// KIR3DL3 /// KIR3DL3 /// KIR3DS1 (11738374_at) / RFU C1QL1 (11718748_at) / Fold change /veh C1QL1 (11718748_at) / RFU TMPRSS4 (11747572_a_at) / Fold change /veh TMPRSS4 (11747572_a_at) / RFU HAMP (11756126_x_at) / Fold change /veh HAMP (11756126_x_at) / RFU RNFT2 (11725882_a_at) / Fold change /veh RNFT2 (11725882_a_at) / RFU NR4A2 (11747474_a_at) / Fold change /veh NR4A2 (11747474_a_at) / RFU ABCC12 (11746883_a_at) / Fold change /veh ABCC12 (11746883_a_at) / RFU TMEM136 (11760407_x_at) / Fold change /veh TMEM136 (11760407_x_at) / RFU CLDN22 /// WWC2 (11732394_at) / Fold change /veh CLDN22 /// WWC2 (11732394_at) / RFU HLA-DPB1 (11760878_x_at) / Fold change /veh HLA-DPB1 (11760878_x_at) / RFU SPINT1 (11716480_a_at) / Fold change /veh SPINT1 (11716480_a_at) / RFU GAP43 (11754022_s_at) / Fold change /veh GAP43 (11754022_s_at) / RFU A4GNT (11735810_at) / Fold change /veh A4GNT (11735810_at) / RFU PRB3 (11715151_x_at) / Fold change /veh PRB3 (11715151_x_at) / RFU TUBB4B (11761932_at) / Fold change /veh TUBB4B (11761932_at) / RFU CAPN14 (11732068_a_at) / Fold change /veh CAPN14 (11732068_a_at) / RFU TMCC2 (11721928_a_at) / Fold change /veh TMCC2 (11721928_a_at) / RFU IRGQ (11745062_a_at) / Fold change /veh IRGQ (11745062_a_at) / RFU FAM174B (11720279_a_at) / Fold change /veh FAM174B (11720279_a_at) / RFU TMPRSS4 (11748680_a_at) / Fold change /veh TMPRSS4 (11748680_a_at) / RFU FAM212B (11763350_a_at) / Fold change /veh FAM212B (11763350_a_at) / RFU PLEKHG5 (11743358_a_at) / Fold change /veh PLEKHG5 (11743358_a_at) / RFU ZSCAN30 (11745921_a_at) / Fold change /veh ZSCAN30 (11745921_a_at) / RFU CMKLR1 (11741424_a_at) / Fold change /veh CMKLR1 (11741424_a_at) / RFU LOC101060620 /// MAPK8IP1 (11723275_at) / Fold change /veh LOC101060620 /// MAPK8IP1 (11723275_at) / RFU SPTSSB (11747773_x_at) / Fold change /veh SPTSSB (11747773_x_at) / RFU PRSS12 (11739890_at) / Fold change /veh PRSS12 (11739890_at) / RFU BIN1 (11741810_x_at) / Fold change /veh BIN1 (11741810_x_at) / RFU WNT11 (11732464_a_at) / Fold change /veh WNT11 (11732464_a_at) / RFU C10orf10 (11716521_a_at) / Fold change /veh C10orf10 (11716521_a_at) / RFU C5orf56 (11738089_at) / Fold change /veh C5orf56 (11738089_at) / RFU CYB561 (11721691_x_at) / Fold change /veh CYB561 (11721691_x_at) / RFU ANKRD19P (11752326_a_at) / Fold change /veh ANKRD19P (11752326_a_at) / RFU OR2T12 /// OR2T33 /// OR2T8 (11738714_s_at) / Fold change /veh OR2T12 /// OR2T33 /// OR2T8 (11738714_s_at) / RFU VCAN (11748164_a_at) / Fold change /veh VCAN (11748164_a_at) / RFU JSRP1 (11732532_at) / Fold change /veh JSRP1 (11732532_at) / RFU KRTAP10-11 (11738290_x_at) / Fold change /veh KRTAP10-11 (11738290_x_at) / RFU MYO3A (11730013_a_at) / Fold change /veh MYO3A (11730013_a_at) / RFU EBF3 (11725865_a_at) / Fold change /veh EBF3 (11725865_a_at) / RFU CAMK2N1 (11719241_x_at) / Fold change /veh CAMK2N1 (11719241_x_at) / RFU C5orf56 (11738088_a_at) / Fold change /veh C5orf56 (11738088_a_at) / RFU OLFML3 (11715873_a_at) / Fold change /veh OLFML3 (11715873_a_at) / RFU LOC100653217 /// NTM (11731650_a_at) / Fold change /veh LOC100653217 /// NTM (11731650_a_at) / RFU MAPK11 (11762145_a_at) / Fold change /veh MAPK11 (11762145_a_at) / RFU FIZ1 (11724087_x_at) / Fold change /veh FIZ1 (11724087_x_at) / RFU OASL (11726364_x_at) / Fold change /veh OASL (11726364_x_at) / RFU SOX15 (11748057_x_at) / Fold change /veh SOX15 (11748057_x_at) / RFU CD79A (11719716_a_at) / Fold change /veh CD79A (11719716_a_at) / RFU HIST1H1D (11736915_at) / Fold change /veh HIST1H1D (11736915_at) / RFU CASKIN2 (11723855_a_at) / Fold change /veh CASKIN2 (11723855_a_at) / RFU LOC730098 (11760151_x_at) / Fold change /veh LOC730098 (11760151_x_at) / RFU OR4N2 (11742367_at) / Fold change /veh OR4N2 (11742367_at) / RFU PRRT2 (11749266_a_at) / Fold change /veh PRRT2 (11749266_a_at) / RFU SNX32 (11753110_a_at) / Fold change /veh SNX32 (11753110_a_at) / RFU CDHR5 (11726645_a_at) / Fold change /veh CDHR5 (11726645_a_at) / RFU RCAN1 (11760418_a_at) / Fold change /veh RCAN1 (11760418_a_at) / RFU FAM167A (11723789_a_at) / Fold change /veh FAM167A (11723789_a_at) / RFU FAM26E (11764081_at) / Fold change /veh FAM26E (11764081_at) / RFU ISYNA1 (11749810_s_at) / Fold change /veh ISYNA1 (11749810_s_at) / RFU ACY1 (11761880_at) / Fold change /veh ACY1 (11761880_at) / RFU 11764098_at / Fold change /veh 11764098_at / RFU SAMD14 (11745864_x_at) / Fold change /veh SAMD14 (11745864_x_at) / RFU NPB (11741838_a_at) / Fold change /veh NPB (11741838_a_at) / RFU TMPRSS6 (11731388_a_at) / Fold change /veh TMPRSS6 (11731388_a_at) / RFU KRTAP10-2 (11738614_at) / Fold change /veh KRTAP10-2 (11738614_at) / RFU ARHGAP8 /// PRR5-ARHGAP8 (11727945_x_at) / Fold change /veh ARHGAP8 /// PRR5-ARHGAP8 (11727945_x_at) / RFU KRTAP5-7 /// NADSYN1 (11734609_at) / Fold change /veh KRTAP5-7 /// NADSYN1 (11734609_at) / RFU RASL12 (11751679_a_at) / Fold change /veh RASL12 (11751679_a_at) / RFU CDKN2B (11736163_a_at) / Fold change /veh CDKN2B (11736163_a_at) / RFU PRF1 (11729649_at) / Fold change /veh PRF1 (11729649_at) / RFU, ZNF638 /// ZNF638-IT1 / Fold change vs veh, ZNF638 /// ZNF638-IT1 / RFU, PANK3 / Fold change vs veh, PANK3 / RFU, SH3YL1 / Fold change vs veh, SH3YL1 / RFU, ZEB2 / Fold change vs veh, ZEB2 / RFU, NRIP1 / Fold change vs veh, NRIP1 / RFU, PTTG1IP / Fold change vs veh, PTTG1IP / RFU, CAPN2 / Fold change vs veh, CAPN2 / RFU, MED14 / Fold change vs veh, MED14 / RFU, SNORA58 / Fold change vs veh, SNORA58 / RFU, C1orf63 / Fold change vs veh, C1orf63 / RFU, LRRFIP1 / Fold change vs veh, LRRFIP1 / RFU, NDUFAF7 / Fold change vs veh, NDUFAF7 / RFU, SLC12A2 / Fold change vs veh, SLC12A2 / RFU, IBTK / Fold change vs veh, IBTK / RFU, ESF1 / Fold change vs veh, ESF1 / Fold change vs veh, TMEM50B / RFU, TAOK1 / Fold change vs veh, TAOK1 / RFU, ACBD3 / Fold change vs veh, ACBD3 / RFU, TMA16 / Fold change vs veh, TMA16 / RFU, RWDD3 / Fold change vs veh, RWDD3 / RFU, BCAT1 / Fold change vs veh, BCAT1 / RFU, EDEM3 / Fold change vs veh, EDEM3 / RFU, TMEM33 / Fold change vs veh, TMEM33 / RFU, WDR75 / Fold change vs veh, WDR75 / RFU, AHCTF1 / Fold change vs veh, AHCTF1 / RFU, TFRC / Fold change vs veh, TFRC / RFU, ZDHHC17 / Fold change vs veh, ZDHHC17 / RFU, NOM1 / Fold change vs veh, NOM1 / RFU, ARL8B / Fold change vs veh, ARL8B / RFU, ZBTB11 / Fold change vs veh, ZBTB11 / RFU, TAMM41 / Fold change vs veh, TAMM41 / RFU, KIAA1704 /// LOC100996395 / Fold change vs veh, KIAA1704 /// LOC100996395 / RFU, ING1 / Fold change vs veh, ING1 / RFU, TRMT61B / Fold change vs veh, TRMT61B / RFU, FUBP3 / Fold change vs veh, FUBP3 / RFU, TP53 / Fold change vs veh, TP53 / RFU, TNKS2 / Fold change vs veh, TNKS2 / RFU, ZFP14 / Fold change vs veh, ZFP14 / RFU, ACTR2 / Fold change vs veh, ACTR2 / RFU, PPP3R1 / Fold change vs veh, PPP3R1 / RFU, PIK3R1 / Fold change vs veh, PIK3R1 / RFU, HNRNPA1 / Fold change vs veh, HNRNPA1 / RFU, RNF170 / Fold change vs veh, RNF170 / RFU, ZNF28 / Fold change vs veh, ZNF28 / RFU, RNGTT / Fold change vs veh, RNGTT / RFU, OGT / Fold change vs veh, OGT / RFU, BRD1 / Fold change vs veh, BRD1 / RFU, MARS / Fold change vs veh, MARS / RFU, ZNF655 / Fold change vs veh, ZNF655 / RFU, FAHD1 / Fold change vs veh, FAHD1 / RFU, BDP1 / Fold change vs veh, BDP1 / RFU, LRRCC1 / Fold change vs veh, LRRCC1 / RFU, ARID1A / Fold change vs veh, ARID1A / RFU, ZNF146 / Fold change vs veh, ZNF146 / RFU, ZNF330 / Fold change vs veh, ZNF330 / RFU, GPN3 / Fold change vs veh, GPN3 / RFU, C9orf123 / Fold change vs veh, C9orf123 / RFU, N4BP2L2 / Fold change vs veh, N4BP2L2 / RFU, ARFIP1 / Fold change vs veh, ARFIP1 / RFU, FAM179B / Fold change vs veh, FAM179B / RFU, BCL10 / Fold change vs veh, BCL10 / RFU, UHRF1BP1L / Fold change vs veh, UHRF1BP1L / RFU, BET1 / Fold change vs veh, BET1 / RFU, CNOT2 / Fold change vs veh, CNOT2 / RFU, ZNF268 / Fold change vs veh, ZNF268 / Fold change vs veh, ZNF507 / RFU, DGCR2 / Fold change vs veh, DGCR2 / RFU, WDSUB1 / Fold change vs veh, WDSUB1 / Fold change vs veh, HSP90B1 /// MIR3652 / RFU, ADSS / Fold change vs veh, ADSS / RFU, GK / Fold change vs veh, GK / RFU, ZNF148 / Fold change vs veh, ZNF148 / RFU, TAF9 / Fold change vs veh, TAF9 / RFU, SLC1A5 / Fold change vs veh, SLC1A5 / RFU, SLMO2 / Fold change vs veh, SLMO2 / RFU, ABCC4 / Fold change vs veh, ABCC4 / RFU, LOC101060439 /// RAP1B / Fold change vs veh, LOC101060439 /// RAP1B / RFU, RFX7 / Fold change vs veh, RFX7 / RFU, GTPBP10 / Fold change vs veh, GTPBP10 / RFU, CNEP1R1 / Fold change vs veh, CNEP1R1 / RFU, BIVM-ERCC5 /// ERCC5 / Fold change vs veh, BIVM-ERCC5 /// ERCC5 / RFU, ILF3 / Fold change vs veh, ILF3 / RFU 11762660_at / Fold change /veh 11762660_at / RFU VCAN (11757783_s_at) / Fold change /veh VCAN (11757783_s_at) / RFU DDX43 (11728927_at) / Fold change /veh DDX43 (11728927_at) / RFU KRT8 (11758188_x_at) / Fold change /veh KRT8 (11758188_x_at) / RFU NKD1 (11759106_at) / Fold change /veh NKD1 (11759106_at) / RFU SRD5A1 (11742802_a_at) / Fold change /veh SRD5A1 (11742802_a_at) / RFU TPSAB1 /// TPSB2 (11721975_s_at) / Fold change /veh TPSAB1 /// TPSB2 (11721975_s_at) / RFU GSTM3 (11746129_a_at) / Fold change /veh GSTM3 (11746129_a_at) / RFU IL23R (11737362_x_at) / Fold change /veh IL23R (11737362_x_at) / RFU TMEM51 (11727254_a_at) / Fold change /veh TMEM51 (11727254_a_at) / RFU PIWIL2 (11732686_x_at) / Fold change /veh PIWIL2 (11732686_x_at) / RFU ORM1 (11744905_x_at) / Fold change /veh ORM1 (11744905_x_at) / RFU CCDC152 (11743942_at) / Fold change /veh CCDC152 (11743942_at) / RFU ECM1 (11717891_a_at) / Fold change /veh ECM1 (11717891_a_at) / RFU IL23R (11748794_a_at) / Fold change /veh IL23R (11748794_a_at) / RFU TNFAIP8L3 (11732012_x_at) / Fold change /veh TNFAIP8L3 (11732012_x_at) / RFU MBOAT4 (11741988_at) / Fold change /veh MBOAT4 (11741988_at) / RFU 11764193_at / Fold change /veh 11764193_at / RFU TMEM53 (11763286_at) / Fold change /veh TMEM53 (11763286_at) / RFU MAGEB2 (11727129_at) / Fold change /veh MAGEB2 (11727129_at) / RFU TMEM200A (11744735_a_at) / Fold change /veh TMEM200A (11744735_a_at) / RFU CCDC152 (11751479_a_at) / Fold change /veh CCDC152 (11751479_a_at) / RFU FAM211A (11726209_a_at) / Fold change /veh FAM211A (11726209_a_at) / RFU RGS16 (11746705_a_at) / Fold change /veh RGS16 (11746705_a_at) / RFU VCAN (11755009_s_at) / Fold change /veh VCAN (11755009_s_at) / RFU RHOB (11743442_s_at) / Fold change /veh RHOB (11743442_s_at) / RFU RGS16 (11720943_a_at) / Fold change /veh RGS16 (11720943_a_at) / RFU RGS16 (11720944_at) / Fold change /veh RGS16 (11720944_at) / RFU, VPS4B / Fold change vs veh, VPS4B / RFU, CREB1 / Fold change vs veh, CREB1 / RFU, DNAJC13 / Fold change vs veh, DNAJC13 / RFU, GNAQ / Fold change vs veh, GNAQ / RFU, CDK5R1 / Fold change vs veh, CDK5R1 / RFU, ZRANB3 / Fold change vs veh, ZRANB3 / RFU, CUL4A / Fold change vs veh, CUL4A / RFU, CCNY / Fold change vs veh, CCNY / RFU, UFL1 / Fold change vs veh, UFL1 / RFU, COG3 / Fold change vs veh, COG3 / RFU, DIAPH2 / Fold change vs veh, DIAPH2 / RFU, SKA2 / Fold change vs veh, SKA2 / RFU, AFF3 / Fold change vs veh, AFF3 / RFU, LMF1 / Fold change vs veh, LMF1 / RFU, IPO11 / Fold change vs veh, IPO11 / RFU, DFFB / Fold change vs veh, DFFB / RFU, FOXP1 / Fold change vs veh, FOXP1 / RFU, CARD8 / Fold change vs veh, CARD8 / RFU, STRN3 / Fold change vs veh, STRN3 / RFU, ADK / Fold change vs veh, ADK / RFU, RASSF2 / Fold change vs veh, RASSF2 / RFU, WIPF1 / Fold change vs veh, WIPF1 / RFU, LARP1B / Fold change vs veh, LARP1B / RFU, RASA1 / Fold change vs veh, RASA1 / RFU, RB1 / Fold change vs veh, RB1 / RFU, PPFIA1 / Fold change vs veh, PPFIA1 / RFU, MAT2A / Fold change vs veh, MAT2A / RFU, CCT5 / Fold change vs veh, CCT5 / RFU, WDR92 / Fold change vs veh, WDR92 / RFU, CUX1 / Fold change vs veh, CUX1 / RFU, TTC7A / Fold change vs veh, TTC7A / RFU, TMEM135 / Fold change vs veh, TMEM135 / RFU, DEPTOR / Fold change vs veh, DEPTOR / RFU, CPM / Fold change vs veh, CPM / RFU, DNAJB6 / Fold change vs veh, DNAJB6 / RFU, CACNA2D3 / Fold change vs veh, CACNA2D3 / RFU, DTX4 / Fold change vs veh, DTX4 / RFU, TFCP2 / Fold change vs veh, TFCP2 / RFU, GMCL1 /// GMCL1P1 / Fold change vs veh, GMCL1 /// GMCL1P1 / RFU, AEBP2 / Fold change vs veh, AEBP2 / RFU, SNHG1 /// SNORD22 /// SNORD25 /// SNORD26 /// SNORD27 /// SNORD28 /// SNORD29 /// SNORD31 / Fold change vs veh, SNHG1 /// SNORD22 /// SNORD25 /// SNORD26 /// SNORD27 /// SNORD28 /// SNORD29 /// SNORD31 / Fold change (Aza/veh), C12orf56 (ProbeSet 11735607_a_at) / Fold change (ACY-1035/veh), C12orf56 (ProbeSet 11735607_a_at) / Fold change (Aza/veh), FGFR1OP (ProbeSet 11751329_s_at) / Fold change (ACY-1035/veh), FGFR1OP (ProbeSet 11751329_s_at) / Fold change (Aza/veh), VPS36 (ProbeSet 11739960_a_at) / Fold change (ACY-1035/veh), VPS36 (ProbeSet 11739960_a_at) / RFU SYPL1 (11715823_x_at) / Fold change /veh SYPL1 (11715823_x_at) / RFU IGFBP7 (11715501_s_at) / Fold change /veh IGFBP7 (11715501_s_at) / RFU REEP3 (11722064_at) / Fold change /veh REEP3 (11722064_at) / RFU IGLL1 (11728026_x_at) / Fold change /veh IGLL1 (11728026_x_at): dose or concentration left out as unconfirmed.

From paper PMC5218480 (PLoS ONE, 2017) come the findings set out here.

Structures are written as SMILES.

For the compound `Nc1ncn([C@@H]2O[C@H](CO)[C@@H](O)[C@H]2O)c(=O)n1` [azacitidine], the “Fold change /veh PLEKHG5 (11743358_a_at)” value is listed as 1.07.
